Structures can show the parent of a compound that is named as a salt. Where two headings read alike, the source gives them in different places.

Consider 7 molecules from patent US20180078656A1, “CRYPTOPHYCIN-BASED ANTIBODY-DRUG CONJUGATES WITH NOVEL SELF-IMMOLATIVE LINKERS” (priority 2015, published 2018).

The test system of one series is H69AR cells. In words: Cell viability assay (CellTiter-Glo), drug-resistant H69AR. Type of series: cell-based. To be noted: for IC50: 120 h incubation. The method, then: (§1) H69 cells and the drug-resistant counterpart H69AR were obtained from the American Type Culture Collection and were grown according to standard protocols. The effects of cryptophycin and cryptophycin conjugates on the viability of wild type and drug resistant tumor cell lines were assessed using the CellTiter-Glo® Luminescent Cell Viability Assay (Promega), according to the manufacturer protocol. Cells were plated in black-walled 96-well plates (5000 cells per well) and allowed to adhere overnight at 37° C. in a humidified atmosphere of 5% CO2. Medium was then removed and replaced by fresh culture medium containing increasing concentrations of cryptophycin analogs or doxorubicin as a control. Cells were incubated with compounds for 120 h at 37° C. in 5% CO2. Eight triplicate 1:3 serial dilution datapoints were recorded for each experimental condition (from […] to 10 nM for CRY55-Gly, CRY55-Gly-LINKER73 and CRY55-Gly-LINKER76, from 1.2 nM to 2700 nM for doxorubicin). At the end of the incubation, luminescence was measured using a Perkin Elmer Wallac 1450 MicroBeta TriLux detector. Compound cytotoxicity was evaluated in comparison to cells treated with 0.1% DMSO.

The test system of another series is AR42J cells. Put plainly: Cell viability assay (CellTiter-Glo), AR42J, 120 h. To be noted: 120 h incubation; for IC50: SSTR2-high AR42J. Type of series: cell-based, rat. The method, then: (§2) Tumor cell lines (the rat pancreatic tumor cell line AR42J and the human breast carcinoma cell line MCF7) were obtained from the American Type Culture Collection and were grown according to standard protocols.
(§3) The effects of the cryptophycin-55-glycinate-octreotide conjugate of Example 5 on the viability of the tumor cell lines AR42J (STTR2^high) and MCF7 (SSTR2^low) were assessed using the CellTiter-Glo® Luminescent Cell Viability Assay (Promega), according to the manufacturer protocol. Cells were plated in black-walled 96-well plates (5000 cells per well) and allowed to adhere overnight at 37° C. in a humidified atmosphere of 5% CO2. Medium was then removed and replaced by fresh culture medium containing increasing concentrations of cryptophycin-55-glycinate-octreotide conjugate (CRY55-Gly-Oct), unconjugated octreotide, or free cryptophycin-55-glycinate (CRY55-Gly), and the cells were incubated for 120 h at 37° C. in 5% CO2. Nine triplicate 1:3 serial dilution datapoints were recorded for each experimental condition (from 0.0015 nM to 10 nM for CRY55-Gly and CRY55-Gly-Oct, from 0.0015 uM to 10 uM for the unconjugated octreotide). At the end of the incubation luminescence was measured using a Perkin Elmer Wallac 1450 MicroBeta TriLux detector. Compound cytotoxicity was evaluated in comparison to cells treated with 0.1% DMSO. IC50 values were calculated by fitting viability data with a four-parameter logistic equation using a Kaleidagraph software. Residual cell viability plots obtained upon treatment of the AR42J and MCF7 cells with the different compounds are shown in FIG. 3 and FIG. 4, respectively.
(In general: ATP-based viability assays read luminescence as a measure of living cells.)

Series [1] deals with MCF7 cells. In words: Cell viability assay (CellTiter-Glo), MCF7, 120 h. The class given is cell-based, human. The note with it: for IC50: read-out: IC50, MCF7. The method, then: as §2, §3
A further series concerns H69 cells. Put plainly: Cell viability assay (CellTiter-Glo), H69 wild type. To be noted: wild type H69, 120 h incubation. Type of series: cell-based. The method, then: as §1
Another series deals with HCT116 cells. Put plainly: Cell viability assay (CellTiter-Glo), HCT116. The class given is cell-based. The note with it: read-out: HCT116 CC50. The method, then: (§4) Tumor cell lines (breast carcinoma cell lines SKBR-3 and MCF7 and colon carcinoma cell line HCT116) were obtained from American Type Culture Collection and were grown according to standard protocols. […] The effects of the cryptophycin-55-glycinate ADC conjugate on tumor cell viability were assessed using the CellTiter-Glo® Luminescent Cell Viability Assay (Promega), according to the manufacturer protocol. […] Cells were plated in black-walled 96-well plates (5000 cells per well for SKBR-3 and MCF7; 2000 cells per well for HCT116) and allowed to adhere overnight at 37° C. in a humidified atmosphere of 5% CO2. […] Five to eight triplicate datapoints were recorded for each experimental condition. At the end of the incubation luminescence was measured using a Perkin Elmer Wallac 1450 MicroBeta TriLux detector. Compound cytotoxicity was evaluated in comparison to cells treated with PBS (antibodies) or 0.1% DMSO (compounds). CC50 values were calculated by fitting viability data with a four-parameter logistic equation using a Kaleidagraph software.

For series [2], the system named is MCF7 cells. Put plainly: Cell viability assay (CellTiter-Glo), MCF7, 96 h. The class given is cell-based, human. To be noted: read-out: MCF7 CC50. The method, then:
as §4

The test system of the next series is SK-BR3 cells. In words: Cell viability assay (CellTiter-Glo), SK-BR3. Type of series: cell-based. The note with it: read-out: SK-BR3 CC50. The method, then: as §4

`COc1cccc2c1C(=O)c1c(O)c3c(c(O)c1C2=O)C[C@@](O)(C(=O)CO)C[C@@H]3O[C@H]1C[C@H](N)[C@H](O)[C@H](C)O1` [doxorubicin]: the “effect on H69AR cell viability (in words)” value in the series on H69AR cells (120 h, 1.2 nM to 2700 nM) was “only minor effects”.

One may read the IC50 as the point on the concentration scale where inhibition reaches its midpoint. As for `COc1ccc(C[C@H]2NC(=O)/C=C/C[C@@H]([C@H](C)[C@@H](OC(=O)CNC(=O)[C@@H]3CCCN3C(=O)CNC(=O)[C@H](CCCNC(N)=O)NC(=O)[C@@H](NC(=O)CCOCCOCCOCCOCCn3cc(CCC(=O)N[C@H](Cc4ccccc4)C(=O)N[C@H]4CSSCC(C(=O)N[C@H](CO)[C@@H](C)O)NC(=O)C([C@@H](C)O)NC(=O)[C@H](CCCCN)NC(=O)[C@@H](Cc5c[nH]c6ccccc56)NC(=O)[C@H](Cc5ccccc5)NC4=O)nn3)C(C)C)[C@@H](Cl)c3ccccc3)OC(=O)[C@H](CC(C)C)OC(=O)C(C)(C)CNC2=O)cc1Cl` (some centres unmarked) [Oct-Cry55-Gly conjugate], the IC50 in the series with AR42J cells amounted to 0.9 nM; in the series on MCF7 cells [1] (SSTR2-low MCF7, 120 h incubation), 27 nM. For the same molecule, the “fold difference of IC50 on MCF7, conjugate versus cryptophycin-55-glycinate” value in the series with MCF7 cells [1] (MCF7, 120 h incubation) amounted to 90 fold.

One may read the CC50 as the concentration that lowers cell viability or growth by half. In the case of `COc1ccc(C[C@H]2NC(=O)/C=C/C[C@@H]([C@H](C)[C@@H](OC(=O)CN)[C@@H](Cl)c3ccccc3)OC(=O)[C@H](CC(C)C)OC(=O)C(C)(C)CNC2=O)cc1Cl` [Cry-55-Gly, Cryptophycin-55-glycinate trifluoroacetate], the IC50 amounted to 0.15 nM with H69AR cells (Homo sapiens); 0.8 nM in the series on AR42J cells (Rattus norvegicus, AR-42J); 0.2 nM with MCF7 cells [1] (Homo sapiens, MCF7, 120 h); 0.09 nM in the series with H69 cells (Homo sapiens, NCI-H69). Moreover, the CC50 in the series on HCT116 cells (Homo sapiens, HCT-116, 96 h) was 0.19 nM; with MCF7 cells [2] (Homo sapiens, MCF7, 96 h), 0.25 nM; in the series on SK-BR3 cells (Homo sapiens, SK-BR-3, 96 h), 0.09 nM.

As for “Maleimide-PEG-Val-Cit-Pro-Gly-Cryptophycin-55-glycinate [Cry-55-Linker]”, the half-maximal cytotoxic concentration (CC50) in the series with HCT116 cells (Her2-low HCT116, 96 h incubation) stood at 4.4 nM; with MCF7 cells [2] (Her2-low MCF7, 96 h incubation), 6.1 nM; in the series on SK-BR3 cells (HER2-positive SK-BR3, 96 h incubation) it was 2.6 nM.

As for “Azide-TEG-Val-Cit-Gly-Pro-Gly-cryptophycin-55 [Example 5]”, the IC50 with H69AR cells stood at 3.6 nM; with H69 cells, 1.7 nM.

`COc1ccc(C[C@H]2NC(=O)/C=C/C[C@@H]([C@H](C)[C@@H](O)[C@@H](Cl)c3ccccc3)OC(=O)[C@H](CC(C)C)OC(=O)C(C)(C)CNC2=O)cc1Cl` [Cry-55, Cryptophycin-55]: the IC50 was determined as 0.23 nM in the series on H69AR cells (Homo sapiens) and 0.1 nM with H69 cells (Homo sapiens, NCI-H69). The CC50 in the series with HCT116 cells (Homo sapiens, HCT-116, 96 h) was 0.1 nM; with MCF7 cells [2] (Homo sapiens, MCF7, 96 h) it was 0.18 nM; in the series on SK-BR3 cells (Homo sapiens, SK-BR-3, 96 h), 0.076 nM.

Regarding `C[C@@H](O)[C@@H]1NC(=O)[C@H](CCCCN)NC(=O)[C@@H](Cc2c[nH]c3ccccc23)NC(=O)[C@H](Cc2ccccc2)NC(=O)[C@@H](NC(=O)[C@H](N)Cc2ccccc2)CSSC[C@@H](C(=O)N[C@H](CO)[C@@H](C)O)NC1=O` [Octreotide], the “inhibition of AR42J viability” value with AR42J cells (up to 10 uM) is 30% inh. up to 10 uM. Besides, the “IC50, MCF7 (in words)” value with MCF7 cells [1] (SSTR2-low MCF7, 120 h, tested […] to 10 uM) is reported as “completely ineffective”.
